Data reported in patent US7018813B2 (priority 2000, dated 2006).
Like-named read-outs stand apart in the source and are kept apart here.

Columns and labels:
[1] = at 25° C.; cited from earlier work
[2] = cited from earlier work
[3] = tested on: B. pertussis strain ATCC 9797 or CS87; type: cell-based, Bordetella pertussis

| Molecule | Ksp [1] | solubility in water ([2]; at 25° C.) [µM] | solubility in water ([2]; at 100° C.) [µM] | amount of PT [3] [μg/mL/OD650] |
| --- | --- | --- | --- | --- |
| O=S(=O)([O-])[O-].[Ag+].[Ag+] [AgSO4] | 1.19 × 10^−5 | – | – | – |
| O=S(=O)([O-])[O-].[Pb+2] [PbSO4] | 1.82 × 10^−8 | – | – | – |
| O=S(=O)([O-])[O-].[Sr+2] [SrSO4] | 3.42 × 10^−7 | – | – | – |
| BaSO4 | 1.05 × 10^−10 | 10.7 | 17.7 | – |
| Barium chloride [BaCl2] | – | – | – | 0.525 |
